Patent US8252912B2, “Transcriptional repression of sodium-iodide symporter in thyroid carcinoma” (University of Kentucky Research Foundation, priority 2007, dated 2012)

What was measured:
hNIS mRNA in KAK-1 cells = test: qRT-PCR assay of hNIS mRNA levels after treatments in KAK-1 cells; assay type: cell-based, human; conditions: for Stimulation of hNIS mRNA transcription (in words): qRT-PCR; for Relative hNIS mRNA level: relative to control = 1 (4 copies/10^9 18s RNA), azaC 0.5 μM, NaB 1 mM, CHX 10 μg/ml, 3-AB 7.5 mM, PJ34 30 μmole/liter
Method: The basal media and supplements were all from GIBCO/Invitrogen Corporation, Grand Island, N.Y. All thyroid cell lines were grown in phenol red-free RPMI 1640 (GIBCO) with 10% FBS, 100 nmol/L sodium selenite, and 0.1 nmol/L bovine TSH (Sigma) at 37° C. in 5% CO2. KAK-1 cells were also cultured in high-glucose, phenol red-free RPMI 1640 supplemented with 10% FBS, 100 nM sodium selenite, 5 pIU/ml human TSH, 0.1 mM non-essential amino acids, 1 mM sodium pyruvate at 37° C. in 5% CO2. Cell culture media was replenished every 2 days. All chemical reagents were obtained from Sigma Chemical Company (St. Louis, Mo.). In addition, PJ34 was obtained from CalBiochem/EMD Biosciences, Inc. (La Jolla, Calif.) and used at 30 μmole/liter. Cycloheximide (CHX), 3-aminobenzamide (3-AB), 5-azacytidine (azaC), and sodium butyrate (NaB) were from Sigma-Aldrich Chemical Company (St. Louis, Mo.) and used at 10 μg/ml, 7.5 mM, 0.5 μM, 1 mM respectively.
Total RNA was isolated using TRIzol reagent (Invitrogen Corp., Carlsbad, Calif.), genomic DNA contamination removed using DNA-free kit (Ambion Inc., Austin, Tex.), and cDNA synthesized from 2 μg total RNA using Advantage RT-for-PCR kit (BD Biosciences Clontech, Palo Alto, Calif.) with random hexamer primers. TaqMan Universal PCR Master Mix (Applied Biosystems, Foster City, Calif.) and Assay-on-Demand Gene Expression Products (Hs00166567_m1 for hNIS mRNA and Hs999999-1_s1 for 18sRNA, respectively; Applied Biosystems) were used for RNA quantitation. The hNIS fragment (1446-1865, +1 is translation initiation codon “A”) was PCR amplified using NIS-F (5′-ctgcgtggctctctcagtc-3′ SEQ ID NO:6) and NIS-R (5′-ccctccagctccttctgc-3′ SEQ ID NO:7), followed by ligation into pCR2.1 vector (Invitrogen). The same procedure was followed using 18s-F (5′-atggtgaccacgggtgacg-3′ SEQ ID NO:8) and 18s-R (5′-[…]-3′ SEQ ID NO:9) for 18s qPCR standard. DNA preparations of these two plasmids were quantitated, diluted and used as quantitation standards in qPCR measurements.
The qRT-PCR assay was used to measure hNIS mRNA levels after different treatments in KAK-1 cells.

[1] = system: human NIS promoter region (Luc-1/pGL3-basic) in KAK-1 cells; test: Transient transfection luciferase reporter assay, Luc-1/pGL3-basic (hNIS promoter -1667 to -348 bp) in KAK-1 cells, protein synthesis inhibitors; assay type: cell-based; conditions: 2 days, Anisomycin at 0.4, 1 μg/ml, Emetine at 1, 2 μg/ml, Puromycin up to highest concentration used (1 μg/ml)
Method: The pGL3-basic plasmid, together with phRG-B plasmid (as transfection efficiency control) and pUC-18 (as carrier) were transiently transfected into KAK-1 cells cultured under basal conditions supplemented with 0.01% DMSO (as solvent control), Anisomycin (0.1, 0.4, 1 μg/ml), Emetine (0.5, 1, 2 μg/ml) and Puromycin (0.1, 0.4, 1 μg/ml) respectively for 2 days. The cells were then lysed and firefly luciferase activity and Renilla luciferase activity were quantitated using a luminometer (FIG. 3).
Luc-1/pGL3-basic reporter construct (Luc-1) was prepared containing the promoter region of the human sodium/iodide symporter gene (see Venkataraman et al. 1998 Thyroid 8:63-69 and U.S. Pat. No. 6,015,376; Genebank Accession Number: AF059566) from −1667 to −348 bp (FIG. 2) inserted into pGL3-basic luciferase vector at KpnI and HindIII site upstream of the luciferase coding sequence. The Luc-1/pGL3-basic construct, together with phRG-B plasmid (as transfection efficiency control) and pUC-18 (as carrier) were transiently transfected into KAK-1 cells cultured under basal conditions supplemented with 0.01% DMSO (as solvent control), Anisomycin (0.1, 0.4, 1 μg/ml), Emetine (0.5, 1, 2 μg/ml) and Puromycin (0.1, 0.4, 1 μg/ml) respectively for 2 days. The cells were then lysed and firefly luciferase activity and Renilla luciferase activity were quantitated using luminometer (FIG. 4).

[2] = system: hNIS promoter in KAK-1 cells; test: Luciferase reporter assay with pGL3-basic, F4-pGL3-basic and F4Δ-pGL3-basic constructs in KAK-1 cells, PJ34 treatment; assay type: cell-based, human; conditions: PJ34 at 30 μM for 2 days, pGL3-basic, F4-pGL3-basic, F4Δ-pGL3-basic, p<0.05, t-test
Method: For the transient transfection assays to monitor the effects of PJ34, PJ34 was administered at 30 μM one hour before DNA transfection mixtures were added to the KAK-1 cultures. Twenty-four hours later, transfection mixtures were replaced with fresh media containing PJ34. Luciferase and Rennilar activities were determined 24 hr later. Luciferase activity was normalized to Rennilar activity to account for the variations in transfection efficiency. Triplicate transfections were performed and data were presented as mean±SD.
PJ34 is a potent inhibitor for PARP-1. Its effect on hNIS transcription was determined using luciferase reporter assay with pGL3-basic, F4-pGL3-basic (containing hNIS promoter from −1252 to −348 bp) and F4Δ-pGL3-basic constructs (the same as F4-pGL3-basic but with deletion of sequence from −667 to −588 bp, encompassing R—NRBS).

[3] = system: factors in KAK-1 nuclear extract binding to NRBS (Probe A); test: EMSA with radiolabeled Probe A and nuclear extract from treated KAK-1 cells; assay type: cell-based, human; conditions: nuclear extract from KAK-1 cells treated with azaC 0.5 μM, sodium butyrate 1 mM, CHX 10 μg/ml or combinations
Method: Electrophoretic mobility shift assay was performed using radio-labeled NRBS (−684 to −565) oligonucleotides as a probe and nuclear extracts from KAK-1 cells cultured under basal conditions (not expressing hNIS mRNA), as well as with azaC/NaB and azaC/CHX treatments (shown in FIG. 8 on far left).

[4] = system: factor(s) in KAK-1 nuclear extract binding to Probe A (NIS-repressor); test: EMSA competition of cold double-stranded oligonucleotides against radiolabeled Probe A with KAK-1 nuclear extract; design: species or system human; conditions: excess (60×) cold competitor
Method: Nuclear extracts were prepared using the NucBuster Protein Extraction kit from Novagen/EMD Biosciences, Inc. (La Jolla, Calif.) following its instructions. The radioactive EMSA probes were end-labeled using T4 polynucleotide kinase in the presence of γ-P^32-ATP (GE Healthcare Bio-Sciences Corp., Piscataway, N.J.), followed by removal of the free radioactive ATP with the QIAquick Nucleotide Removal Kit from Qiagen (Valencia, Calif.). EMSA reaction was performed using the EMSA Accessory Kit (Novagen) following its instructions. Briefly, 1 μL 10 mM DTT, 5 μL 4×EMSA buffer, 1 μL Salmon sperm DNA and 1 μL poly dI:dC were mixed with 3 μL nuclear extracts, 1 μL radioactive EMSA probe and water to make up to 18 μL. In some reactions, antibodies or cold competitive probes were added. The mixtures were incubated on ice for 30 min, Then 2 μL loading dye were added to each reaction tubes, and the samples were loaded onto 7.5% PAGE/0.5×TBE, and run overnight. The gel was dried, exposed to X-ray films that were developed 2-3 days later. The competitive EMSA probes were prepared by annealing the sense and anti-sense single strand synthetic oligos respectively, which are listed in Table 2.

**Q.** Which “Stimulation of hNIS mRNA transcription (in words)” value (hNIS mRNA in KAK-1 cells) does the source give for NC(=O)c1cccc(N)c1 [3-AB, 3-aminobenzamide] here?
**A.** not effective in stimulating hNIS mRNA transcription

**Q.** What about the “Relative hNIS mRNA level” value (hNIS mRNA in KAK-1 cells) of the same molecule?
**A.** 1

**Q.** Which “Normalized luciferase activity driven by human NIS promoter region (Luc-1/pGL3-basic), compared with pGL3-basic vector” value [1] does the source give for COc1ccc(C[C@H]2NC[C@H](O)[C@H]2OC(C)=O)cc1 [Anisomycin] here?
**A.** dramatically stimulated the normalized luciferase activity

**Q.** For C[C@@H]1C[C@@H]([C@H](O)CC2CC(=O)NC(=O)C2)C(=O)[C@@H](C)C1 [CHX, Cycloheximide], which “Relative hNIS mRNA level” value (hNIS mRNA in KAK-1 cells) is on record?
**A.** 4

**Q.** CC[C@H]1CN2CCc3cc(OC)c(OC)cc3[C@@H]2C[C@@H]1C[C@H]1NCCc2cc(OC)c(OC)cc21 [Emetine] was tested. Which “Normalized luciferase activity driven by human NIS promoter region (Luc-1/pGL3-basic), compared with pGL3-basic vector” value [1] did it give?
**A.** dramatically stimulated the normalized luciferase activity

**Q.** How did the “Stimulation of hNIS mRNA transcription (in words)” value (hNIS mRNA in KAK-1 cells) turn out when CN(C)CC(=O)Nc1ccc2[nH]c(=O)c3ccccc3c2c1 [PJ34] was run?
**A.** stimulate hNIS mRNA more than CHX alone

**Q.** What about the “Relative hNIS mRNA level” value (hNIS mRNA in KAK-1 cells) of the same molecule?
**A.** 26

**Q.** What about the “Normalized luciferase activity with versus without PJ34 treatment” value [2] of the same molecule?
**A.** stimulated luciferase activity from all the constructs

**Q.** Which “Normalized luciferase activity driven by human NIS promoter region (Luc-1/pGL3-basic), compared with pGL3-basic vector” value [1] does the source give for COc1ccc(C[C@H](N)C(=O)N[C@H]2[C@@H](O)[C@H](n3cnc4c(N(C)C)ncnc43)O[C@@H]2CO)cc1 [Puromycin] here?
**A.** did not stimulate the luciferase activity much

**Q.** Which “Relative hNIS mRNA level” value (hNIS mRNA in KAK-1 cells) does the source give for Nc1ncn([C@@H]2O[C@H](CO)[C@@H](O)[C@H]2O)c(=O)n1 [azaC, 5-azacytidine] here?
**A.** 5

**Q.** What about the “Effect of cell treatment on EMSA gel shift pattern (Probe A)” value [3] of the same molecule?
**A.** gel shift pattern remained the same

**Q.** How did the “Competition against radiolabeled Probe A in EMSA (gel-shift signal)” value (“Competition … (gel-shift signal)” for short) [4] turn out when “Comp-1.1: double-stranded competitive EMSA probe, −653 to −630 of hNIS promoter, Seq ID No:77/78 (chain 1 GCCCTTTTTGAGCCTCAATTTCCC; chain 2 GGGAAATTGAGGCTCAAAAAGGGC; chemistry not given here)” was run?
**A.** fail to compete against the radiolabeled Probe A

**Q.** “Comp-1.2: double-stranded competitive EMSA probe, −648 to −625 of hNIS promoter, Seq ID No:79/80 (chain 1 TTTTGAGCCTCAATTTCCCCACCT; chain 2 AGGTGGGGAAATTGAGGCTCAAAA; chemistry not given here)” was tested. Which “Competition … (gel-shift signal)” value [4] did it give?
**A.** effectively competed against the radiolabeled Probe A

**Q.** “Comp-1.3: double-stranded competitive EMSA probe, −643 to −620 of hNIS promoter, Seq ID No:81/82 (chain 1 AGCCTCAATTTCCCCACCTGTCAA; chain 2 TTGACAGGTGGGGAAATTGAGGCT; chemistry not given here)” was tested. Which “Competition … (gel-shift signal)” value [4] did it give?
**A.** effectively competed against the radiolabeled Probe A

**Q.** For “Comp-1.4: double-stranded competitive EMSA probe, −638 to −615 of hNIS promoter, Seq ID No:83/84 (chain 1 CAATTTCCCCACCTGTCAACAGCA; chain 2 TGCTGTTGACAGGTGGGGGAAATTG; chemistry not given here)”, which “Competition … (gel-shift signal)” value [4] is on record?
**A.** fail to compete against the radiolabeled Probe A

B1: Comp-1: double-stranded competitive EMSA probe, −653 to −615 of hNIS promoter, Seq ID No:75/76 (nucleic acid)
chain 1: GCCCTTTTTGAGCCTCAATTTCCCCACCTGTCAACAGCA
chain 2: TGCTGTTGACAGGTGGGGAAATTGAGGCTCAAAAAGGGC
modifications: chemistry not given here
**Q.** For B1, which “Competition … (gel-shift signal)” value [4] is on record?
**A.** completely erased the characteristic gel-shift signal

B2: Comp-2: double-stranded competitive EMSA probe, −633 to −595 of hNIS promoter, Seq ID No:85/86 (nucleic acid)
chain 1: TCCCCACCTGTCAACAGCAGACAGTGACAGCTGTGATCA
chain 2: TGATCACAGCTGTCACTGTCTGCTGTTGACAGGTGGGGA
modifications: chemistry not given here
**Q.** B2 was tested. Which “Competition … (gel-shift signal)” value [4] did it give?
**A.** fail to compete against the radiolabeled Probe A

B3: Comp-0.9: double-stranded competitive EMSA probe, −660 to −627 of hNIS promoter, Seq ID No:73/74 (nucleic acid)
chain 1: GTGACATGCCCTTTTTGAGCCTCAATTTCCCCAC
chain 2: GTGGGGAAATTGAGGCTCAAAAAGGGCATGTCAC
modifications: chemistry not given here
**Q.** B3 was tested. Which “Competition … (gel-shift signal)” value [4] did it give?
**A.** fail to compete against the radiolabeled Probe A
